Test results reported in PubChem BioAssay (NCI).
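96-well plates; 48 h exposure; 5 concentrations. Endpoints by linear interpolation between flanking doses. Not reached: highest tested concentration assigned. GI50 = concentration required for 50% inhibition of growth. TGI is the concentration that stops growth completely.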

Legend:
Experiment in all cases: NCI-60 cell line screen, 48 h
[1] = system: SW-620 colon
[2] = system: HCT-116 colon
[3] = system: LOX IMVI melanoma
[4] = system: TK-10 renal
[5] = system: NCI-H23 lung
[6] = system: UO-31 renal
[7] = system: SR leukemia
[8] = system: NCI/ADR-RES ovarian
[9] = system: SK-MEL-28 melanoma
[10] = system: MOLT-4 leukemia
[11] = system: MDA-MB-435
[12] = system: M14 melanoma
[13] = system: SK-OV-3 ovarian
[14] = system: SF-268 CNS
[15] = system: ACHN renal
[16] = system: HL-60(TB) leukemia
[17] = system: UACC-257 melanoma
[18] = system: RXF 393 renal
[19] = system: HCT-15 colon
[20] = system: SF-295 CNS
[21] = system: HOP-92 NSCLC
[22] = system: BT-549 breast
[23] = system: MCF7 breast
[24] = system: SK-MEL-2 melanoma
[25] = system: SK-MEL-5 melanoma
[26] = system: SN12C renal
[27] = system: COLO 205 colon
[28] = system: RPMI-8226 leukemia
[29] = system: HS 578T breast
[30] = system: A498 renal
[31] = system: DU-145 prostate
[32] = system: CAKI-1 renal
[33] = system: IGROV1 ovarian
[34] = system: SNB-19 CNS
[35] = system: NCI-H522 lung
[36] = system: NCI-H460 lung
[37] = system: A549 NSCLC
[38] = system: MDA-MB-231 breast
[39] = system: U251 CNS
[40] = system: OVCAR-8 ovarian
[41] = system: HOP-62 NSCLC
[42] = system: 786-0 renal
[43] = system: K-562 leukemia
[44] = system: OVCAR-3 ovarian
[45] = system: EKVX NSCLC
[46] = system: PC-3 prostate
[47] = system: KM12 colon
[48] = system: UACC-62 melanoma

Cc1nc(-c2cccc(Nc3nc(-c4ccc(Cl)cc4)cs3)c2)cs1
GI50 [1]: 11.9 µM
TGI [1]: 27 µM
GI50 [2]: 11.6 µM
TGI [2]: 27.5 µM
GI50 [3]: 7.3 µM
TGI [3]: 13.9 µM
GI50 [4]: 8.31 µM
TGI [4]: 17.8 µM
GI50 [5]: 1.27 µM
TGI [5]: 10.9 µM
GI50 [6]: 10 µM
TGI [6]: 21.1 µM
GI50 [7]: 8.31 µM
TGI [7]: 27 µM
GI50 [8]: 5.14 µM
TGI [8]: 12.2 µM
GI50 [9]: 9.6 µM
TGI [9]: 21.3 µM
GI50 [10]: 30.9 µM
TGI [10]: > 50 µM
GI50 [11]: 10.4 µM
TGI [11]: 27.4 µM
GI50 [12]: 9.72 µM
TGI [12]: 19.6 µM
GI50 [13]: 11.9 µM
TGI [13]: 25.4 µM
GI50 [14]: 10.4 µM
TGI [14]: 24.2 µM
GI50 [15]: 10.1 µM
TGI [15]: 17.5 µM
GI50 [16]: 19.8 µM
TGI [16]: > 50 µM
GI50 [17]: 8.76 µM
TGI [17]: 18.1 µM
GI50 [18]: 9.63 µM
TGI [18]: 19 µM
GI50 [19]: 7.83 µM
TGI [19]: 18.6 µM
GI50 [20]: 10.6 µM
TGI [20]: 28.5 µM
GI50 [21]: 17.1 µM
TGI [21]: > 50 µM
GI50 [22]: 10.7 µM
TGI [22]: 21.6 µM
GI50 [23]: 14.7 µM
TGI [23]: 43.7 µM
GI50 [24]: 8.82 µM
TGI [24]: 18.9 µM
GI50 [25]: 10.5 µM
TGI [25]: 19.7 µM
GI50 [26]: 9.3 µM
TGI [26]: 17.1 µM
GI50 [27]: 11.9 µM
TGI [27]: 31.1 µM
GI50 [28]: 21.3 µM
TGI [28]: > 50 µM
GI50 [29]: 14.1 µM
TGI [29]: 34.9 µM
GI50 [30]: 12.3 µM
TGI [30]: 20.9 µM
GI50 [31]: 9.73 µM
TGI [31]: 18.4 µM
GI50 [32]: 11.8 µM
TGI [32]: 24.6 µM
GI50 [33]: 15.9 µM
TGI [33]: 32.7 µM
GI50 [34]: 12.8 µM
TGI [34]: 28.9 µM
GI50 [35]: 8.8 µM
TGI [35]: 19 µM
GI50 [36]: 12.4 µM
TGI [36]: 31.6 µM
GI50 [37]: 8.9 µM
TGI [37]: 24.7 µM
GI50 [38]: 11.1 µM
TGI [38]: 23.3 µM
GI50 [39]: 8.34 µM
TGI [39]: 16.4 µM
GI50 [40]: 10.1 µM
TGI [40]: 23.2 µM
GI50 [41]: 12.3 µM
TGI [41]: 24.5 µM
GI50 [42]: 10.9 µM
TGI [42]: 21.8 µM
GI50 [43]: 8.06 µM
TGI [43]: 21.4 µM
GI50 [44]: 10.5 µM
TGI [44]: 23.1 µM
GI50 [45]: 8.6 µM
TGI [45]: 17.2 µM
GI50 [46]: 8.96 µM
TGI [46]: 21.2 µM
GI50 [47]: 8.4 µM
TGI [47]: 20 µM
GI50 [48]: 6.83 µM
TGI [48]: 15 µM
